From ChEMBL document CHEMBL2203257 (Bioorg Med Chem Lett, 2012)

Experiments:
[1] = biological target: Cyclin-dependent kinase 5 (Homo sapiens, UniProt Q00535); experiment: Inhibition of CDK5
[2] = biological target: Cyclin-dependent kinase 7 (Homo sapiens, UniProt P50613); experiment: Inhibition of CDK7
[3] = biological target: Cyclin-dependent kinase 9 (Homo sapiens, UniProt P50750); experiment: Inhibition of CDK9
[4] = biological target: Dual specificity protein kinase CLK1 (Homo sapiens, UniProt P49759); experiment: Inhibition of CLK1
[5] = biological target: Dual specificity protein kinase CLK2 (Homo sapiens, UniProt P49760); experiment: Inhibition of CLK2
[6] = biological target: eIF-2-alpha kinase GCN2 (Homo sapiens, UniProt Q9P2K8); experiment: Inhibition of EIF2AK4
[7] = biological target: Ephrin type-A receptor 2 (Homo sapiens, UniProt P29317); experiment: Inhibition of EPHA2
[8] = biological target: Ephrin type-B receptor 2 (Homo sapiens, UniProt P29323); experiment: Inhibition of EPHB2
[9] = biological target: Ephrin type-B receptor 6 (Homo sapiens, UniProt O15197); experiment: Inhibition of EPHB6
[10] = biological target: Tyrosine-protein kinase Fyn (Homo sapiens, UniProt P06241); experiment: Inhibition of FYN
[11] = biological target: Interleukin-1 receptor-associated kinase 1 (Homo sapiens, UniProt P51617); experiment: Inhibition of IRAK1
[12] = biological target: Tyrosine-protein kinase JAK1 (Homo sapiens, UniProt P23458); experiment: Inhibition of JAK1
[13] = biological target: Mitogen-activated protein kinase kinase kinase 5 (Homo sapiens, UniProt Q99683); experiment: Inhibition of MAP3K5
[14] = biological target: Mitogen-activated protein kinase kinase kinase kinase 1 (Homo sapiens, UniProt Q92918); experiment: Inhibition of MAP4K1
[15] = biological target: Macrophage-stimulating protein receptor (Homo sapiens, UniProt Q04912); experiment: Inhibition of MST1R
[16] = biological target: Phosphatidylinositol 3-kinase catalytic subunit type 3 (Homo sapiens, UniProt Q8NEB9); experiment: Inhibition of PIK3C3
[17] = biological target: Phosphoinositide 3-kinase regulatory subunit 4 (Homo sapiens, UniProt Q99570); experiment: Inhibition of PIK3R4
[18] = biological target: Protein-tyrosine kinase 6 (Homo sapiens, UniProt Q13882); experiment: Inhibition of PTK6
[19] = biological target: Ribosomal protein S6 kinase alpha-4 (Homo sapiens, UniProt O75676); experiment: Inhibition of RPS6KA4
[20] = biological target: Serine/threonine-protein kinase SIK2 (Homo sapiens, UniProt Q9H0K1); experiment: Inhibition of SIK2
[21] = biological target: Serine/threonine-protein kinase TAO1 (Homo sapiens, UniProt Q7L7X3); experiment: Inhibition of TAOK1
[22] = biological target: Dual specificity testis-specific protein kinase 2 (Homo sapiens, UniProt Q96S53); experiment: Inhibition of TESK2
[23] = biological target: Non-receptor tyrosine-protein kinase TNK1 (Homo sapiens, UniProt Q13470); experiment: Inhibition of TNK1
[24] = biological target: Wee1-like protein kinase (Homo sapiens, UniProt P30291); experiment: Inhibition of WEE1
[25] = biological target: Cytochrome P450 2C9 (Homo sapiens, UniProt P11712); experiment: Inhibition of CYP2C9 at >20 uM; type: ADME
[26] = system: Mus musculus; experiment: Antiinflammatory activity in mouse air pouch model assessed as effect on IL-8-induced migration of granulocytes into air pouch at 3 mg/kg, po; type: functional
[27] = system: Mus musculus; experiment: Antiinflammatory activity in mouse air pouch model assessed as effect on IL-8-induced migration of granulocytes into air pouch at 10 mg/kg, po; type: functional
[28] = system: Mus musculus; experiment: Antiarthritic activity against collagen-induced arthritis mouse model assessed as mean clinical arthritis score with AUC calculation in at 3 mg/kg, po BID for 14 days; type: functional
[29] = biological target: Atypical kinase COQ8B, mitochondrial (Homo sapiens, UniProt Q96D53); experiment: Inhibition of ADCK4
[30] = biological target: Serine/threonine-protein kinase ATR (Homo sapiens, UniProt Q13535); experiment: Inhibition of ATR
[31] = biological target: BMP-2-inducible protein kinase (Homo sapiens, UniProt Q9NSY1); experiment: Inhibition of BMP2K
[32] = biological target: Bromodomain-containing protein 2 (Homo sapiens, UniProt P25440); experiment: Inhibition of BRD2

Sequence of Tyrosine-protein kinase JAK1 (P23458 whole entry): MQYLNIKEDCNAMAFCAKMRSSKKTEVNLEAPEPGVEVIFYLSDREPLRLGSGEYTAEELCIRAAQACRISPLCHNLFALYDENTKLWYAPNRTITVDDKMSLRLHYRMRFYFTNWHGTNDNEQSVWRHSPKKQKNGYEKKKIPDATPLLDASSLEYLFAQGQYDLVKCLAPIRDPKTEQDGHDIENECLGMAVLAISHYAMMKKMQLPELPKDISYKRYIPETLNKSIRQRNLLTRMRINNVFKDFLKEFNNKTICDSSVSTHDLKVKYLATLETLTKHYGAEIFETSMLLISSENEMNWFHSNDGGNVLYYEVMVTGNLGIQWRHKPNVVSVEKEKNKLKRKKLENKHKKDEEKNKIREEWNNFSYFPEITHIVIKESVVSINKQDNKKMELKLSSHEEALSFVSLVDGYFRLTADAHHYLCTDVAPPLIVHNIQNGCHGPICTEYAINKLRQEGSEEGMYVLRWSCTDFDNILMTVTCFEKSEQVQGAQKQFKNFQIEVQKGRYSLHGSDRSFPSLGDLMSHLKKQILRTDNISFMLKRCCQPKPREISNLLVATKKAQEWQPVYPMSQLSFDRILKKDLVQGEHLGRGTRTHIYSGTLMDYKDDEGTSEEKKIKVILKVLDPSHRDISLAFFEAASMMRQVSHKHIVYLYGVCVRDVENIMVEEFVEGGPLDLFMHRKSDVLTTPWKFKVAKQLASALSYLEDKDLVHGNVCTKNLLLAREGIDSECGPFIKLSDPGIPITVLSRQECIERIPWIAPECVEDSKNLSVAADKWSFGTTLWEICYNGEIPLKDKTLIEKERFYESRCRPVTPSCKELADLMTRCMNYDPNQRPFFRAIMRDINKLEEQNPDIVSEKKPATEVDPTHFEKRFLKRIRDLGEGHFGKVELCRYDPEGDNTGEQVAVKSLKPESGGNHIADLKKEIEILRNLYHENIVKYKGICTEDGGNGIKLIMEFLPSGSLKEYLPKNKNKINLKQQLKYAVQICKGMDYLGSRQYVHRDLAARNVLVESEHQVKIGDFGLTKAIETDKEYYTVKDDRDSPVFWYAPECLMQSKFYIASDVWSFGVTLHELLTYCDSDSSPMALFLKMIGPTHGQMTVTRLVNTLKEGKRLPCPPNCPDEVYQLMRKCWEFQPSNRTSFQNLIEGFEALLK
Sequence of Mitogen-activated protein kinase kinase kinase kinase 1 (Q92918 whole entry): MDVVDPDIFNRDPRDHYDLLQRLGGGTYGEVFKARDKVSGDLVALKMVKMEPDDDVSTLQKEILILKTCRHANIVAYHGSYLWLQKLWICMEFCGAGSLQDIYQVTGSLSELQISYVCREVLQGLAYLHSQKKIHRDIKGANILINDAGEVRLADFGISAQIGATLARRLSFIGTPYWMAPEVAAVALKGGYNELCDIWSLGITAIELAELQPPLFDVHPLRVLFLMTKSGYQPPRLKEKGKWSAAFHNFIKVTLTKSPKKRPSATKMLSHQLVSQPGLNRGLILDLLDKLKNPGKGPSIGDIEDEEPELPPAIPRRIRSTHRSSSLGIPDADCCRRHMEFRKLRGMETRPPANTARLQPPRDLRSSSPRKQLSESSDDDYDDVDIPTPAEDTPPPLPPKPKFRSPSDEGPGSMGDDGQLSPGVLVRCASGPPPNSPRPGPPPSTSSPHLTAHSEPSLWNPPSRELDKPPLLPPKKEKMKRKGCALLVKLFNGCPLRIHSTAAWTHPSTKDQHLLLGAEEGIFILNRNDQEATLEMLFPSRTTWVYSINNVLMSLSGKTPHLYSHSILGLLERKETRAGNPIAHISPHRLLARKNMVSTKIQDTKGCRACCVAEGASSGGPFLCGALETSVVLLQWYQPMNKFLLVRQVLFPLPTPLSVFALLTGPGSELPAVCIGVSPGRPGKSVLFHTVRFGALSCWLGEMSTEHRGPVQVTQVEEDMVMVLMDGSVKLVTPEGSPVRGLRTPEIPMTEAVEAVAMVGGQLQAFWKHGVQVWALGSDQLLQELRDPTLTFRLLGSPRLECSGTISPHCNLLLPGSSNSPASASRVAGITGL
Sequence of Ephrin type-A receptor 2 (P29317 whole entry): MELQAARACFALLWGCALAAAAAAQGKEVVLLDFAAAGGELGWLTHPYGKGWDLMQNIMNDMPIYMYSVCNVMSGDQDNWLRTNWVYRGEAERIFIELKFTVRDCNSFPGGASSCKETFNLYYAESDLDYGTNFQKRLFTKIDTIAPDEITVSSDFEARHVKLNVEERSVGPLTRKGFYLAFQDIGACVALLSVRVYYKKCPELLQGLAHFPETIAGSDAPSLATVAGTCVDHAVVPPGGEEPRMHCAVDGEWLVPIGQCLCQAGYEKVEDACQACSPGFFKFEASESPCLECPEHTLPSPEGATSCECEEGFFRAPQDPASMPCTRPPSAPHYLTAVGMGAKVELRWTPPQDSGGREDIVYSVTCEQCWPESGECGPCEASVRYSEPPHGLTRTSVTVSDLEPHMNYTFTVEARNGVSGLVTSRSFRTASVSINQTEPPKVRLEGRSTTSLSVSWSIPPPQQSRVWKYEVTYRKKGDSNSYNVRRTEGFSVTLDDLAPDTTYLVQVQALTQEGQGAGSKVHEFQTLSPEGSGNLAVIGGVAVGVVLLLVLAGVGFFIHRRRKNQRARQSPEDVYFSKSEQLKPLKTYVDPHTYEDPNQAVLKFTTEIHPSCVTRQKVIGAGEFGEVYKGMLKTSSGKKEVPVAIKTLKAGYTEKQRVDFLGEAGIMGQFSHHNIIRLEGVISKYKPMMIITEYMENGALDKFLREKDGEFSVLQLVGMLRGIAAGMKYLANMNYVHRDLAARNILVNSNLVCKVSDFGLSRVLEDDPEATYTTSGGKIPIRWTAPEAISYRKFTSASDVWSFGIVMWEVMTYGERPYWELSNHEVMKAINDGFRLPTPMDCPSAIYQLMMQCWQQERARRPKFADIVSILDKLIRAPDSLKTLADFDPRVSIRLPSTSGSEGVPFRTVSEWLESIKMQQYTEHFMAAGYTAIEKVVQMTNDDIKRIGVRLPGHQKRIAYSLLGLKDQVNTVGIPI
Sequence of Protein-tyrosine kinase 6 (Q13882 whole entry): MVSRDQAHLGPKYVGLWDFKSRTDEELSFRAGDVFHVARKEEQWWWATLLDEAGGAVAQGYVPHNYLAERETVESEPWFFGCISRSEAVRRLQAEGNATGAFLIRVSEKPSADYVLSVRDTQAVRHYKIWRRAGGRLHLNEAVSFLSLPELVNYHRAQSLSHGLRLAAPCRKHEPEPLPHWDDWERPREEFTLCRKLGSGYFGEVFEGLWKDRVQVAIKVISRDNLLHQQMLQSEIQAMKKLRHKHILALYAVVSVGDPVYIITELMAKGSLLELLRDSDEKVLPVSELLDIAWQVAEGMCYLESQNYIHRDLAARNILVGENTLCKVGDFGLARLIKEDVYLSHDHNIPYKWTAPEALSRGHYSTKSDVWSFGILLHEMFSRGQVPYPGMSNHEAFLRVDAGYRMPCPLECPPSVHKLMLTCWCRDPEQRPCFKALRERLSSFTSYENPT
Sequence of Phosphatidylinositol 3-kinase catalytic subunit type 3 (Q8NEB9 whole entry): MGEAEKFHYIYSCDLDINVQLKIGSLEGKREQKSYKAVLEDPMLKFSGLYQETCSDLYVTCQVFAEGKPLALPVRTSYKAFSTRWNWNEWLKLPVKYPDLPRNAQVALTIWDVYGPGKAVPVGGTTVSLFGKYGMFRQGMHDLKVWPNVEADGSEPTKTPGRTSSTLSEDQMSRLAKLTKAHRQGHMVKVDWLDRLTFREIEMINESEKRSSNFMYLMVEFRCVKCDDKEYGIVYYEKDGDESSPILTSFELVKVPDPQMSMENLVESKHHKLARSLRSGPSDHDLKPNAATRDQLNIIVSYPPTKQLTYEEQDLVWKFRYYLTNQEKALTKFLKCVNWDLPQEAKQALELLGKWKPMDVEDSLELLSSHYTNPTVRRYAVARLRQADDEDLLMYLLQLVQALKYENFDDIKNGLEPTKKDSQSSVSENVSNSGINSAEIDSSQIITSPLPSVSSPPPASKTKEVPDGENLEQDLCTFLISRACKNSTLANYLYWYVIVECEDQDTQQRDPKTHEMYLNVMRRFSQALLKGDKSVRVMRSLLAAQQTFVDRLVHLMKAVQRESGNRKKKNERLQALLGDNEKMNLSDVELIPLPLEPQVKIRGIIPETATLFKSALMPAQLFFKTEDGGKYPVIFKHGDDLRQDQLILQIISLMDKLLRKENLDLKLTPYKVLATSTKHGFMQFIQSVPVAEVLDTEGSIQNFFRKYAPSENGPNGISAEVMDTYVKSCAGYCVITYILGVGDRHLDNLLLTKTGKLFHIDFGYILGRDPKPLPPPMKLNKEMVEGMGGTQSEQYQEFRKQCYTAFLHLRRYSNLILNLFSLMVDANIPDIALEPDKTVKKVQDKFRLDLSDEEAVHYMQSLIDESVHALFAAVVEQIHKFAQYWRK
Sequence of Wee1-like protein kinase (P30291 whole entry): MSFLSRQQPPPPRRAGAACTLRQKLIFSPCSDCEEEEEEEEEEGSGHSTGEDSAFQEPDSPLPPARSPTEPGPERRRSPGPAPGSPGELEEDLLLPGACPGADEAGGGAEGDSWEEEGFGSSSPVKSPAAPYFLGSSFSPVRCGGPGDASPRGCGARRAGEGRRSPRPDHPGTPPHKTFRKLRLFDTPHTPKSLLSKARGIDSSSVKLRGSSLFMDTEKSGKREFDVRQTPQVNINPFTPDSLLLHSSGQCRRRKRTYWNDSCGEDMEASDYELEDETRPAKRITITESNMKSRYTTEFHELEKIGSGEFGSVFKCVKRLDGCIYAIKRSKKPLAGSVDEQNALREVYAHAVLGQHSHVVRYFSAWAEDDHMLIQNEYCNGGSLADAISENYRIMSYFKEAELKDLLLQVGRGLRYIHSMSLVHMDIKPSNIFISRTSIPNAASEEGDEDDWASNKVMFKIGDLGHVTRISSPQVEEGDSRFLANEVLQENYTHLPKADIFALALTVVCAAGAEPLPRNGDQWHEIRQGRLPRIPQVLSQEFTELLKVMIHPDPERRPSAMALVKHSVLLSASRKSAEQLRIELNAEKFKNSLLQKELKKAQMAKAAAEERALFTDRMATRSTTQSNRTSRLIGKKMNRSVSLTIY

CC(C)(C)NS(=O)(=O)c1cncc(-c2ccn3nc(N)nc3c2)c1
IC50 [1]: > 10 µM
IC50 [2]: > 10 µM
IC50 [3]: > 10 µM
IC50 [4]: > 10 µM
IC50 [5]: > 10 µM
IC50 [6]: > 10 µM
IC50 [7]: > 10 µM
IC50 [8]: > 10 µM
IC50 [9]: > 10 µM
IC50 [10]: > 10 µM
IC50 [11]: > 10 µM
IC50 [12]: 4.37 µM
IC50 [13]: > 10 µM
IC50 [14]: > 10 µM
IC50 [15]: > 10 µM
IC50 [16]: > 5.89 µM
IC50 [17]: > 10 µM
IC50 [18]: > 10 µM
IC50 [19]: > 10 µM
IC50 [20]: > 10 µM
IC50 [21]: > 10 µM
IC50 [22]: > 10 µM
IC50 [23]: > 10 µM
IC50 [24]: > 10 µM
inhibition (INH) [25]: Active
Activity [26]: 74%
Activity [27]: 73%
Activity [28]: 30%
IC50 [29]: > 10 µM
IC50 [30]: > 5.89 µM
IC50 [31]: > 10 µM
IC50 [32]: > 10 µM
